Measurements as given in US20240174641A1, “HETEROCYCLIC COMPOUNDS CAPABLE OF […]” (Boehringer Ingelheim International GmbH, priority 2022, published 2024).

Experiments:
STING = STING (Canis lupus familiaris, UniProt A0A8I3MH52); assay: Dog whole blood (dWB) assay, IFNb secretion by ELISA; assay type: cell-based; settings: canine Interferon-beta (IFNb) ELISA, 4 h incubation at 37° C.
How it was run: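 Citrated dog whole blood (stored overnight at 4 °C) was preincubated with compound for 60 min at room temperature, top concentration 10 μM with about 1:4 steps and 0.1% DMSO. It was then incubated 4 h at 37 °C, with cGAMP added only to the high-control wells. Plasma IFNb was measured by canine ELISA (A450), normalised to the cGAMP-stimulated and unstimulated controls, and EC50 was fitted with a 4-parameter logistic model.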

dog STING (dSTING) = assay: Dog differential scanning fluorimetry (DSF) assay, thermal shift of dog STING protein; assay type: binding; settings: DSF (dDSF); 100 μM compound, 3 μM dog STING protein; Tm with ligand minus Tm of protein alone
How it was run: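 Dog STING residues 149–375, His-tag removed by TEV, tested at 3 μM with 100 μM compound, 5× SYPRO Orange and 2% DMSO in 20 mM Tris, 150 mM NaCl, pH 7.5. Heated 15–95 °C in 0.5 °C steps. Tm from Boltzmann fit, duplicates averaged; ΔTm relative to protein alone.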

Sequence of STING (A0A8I3MH52 1-374): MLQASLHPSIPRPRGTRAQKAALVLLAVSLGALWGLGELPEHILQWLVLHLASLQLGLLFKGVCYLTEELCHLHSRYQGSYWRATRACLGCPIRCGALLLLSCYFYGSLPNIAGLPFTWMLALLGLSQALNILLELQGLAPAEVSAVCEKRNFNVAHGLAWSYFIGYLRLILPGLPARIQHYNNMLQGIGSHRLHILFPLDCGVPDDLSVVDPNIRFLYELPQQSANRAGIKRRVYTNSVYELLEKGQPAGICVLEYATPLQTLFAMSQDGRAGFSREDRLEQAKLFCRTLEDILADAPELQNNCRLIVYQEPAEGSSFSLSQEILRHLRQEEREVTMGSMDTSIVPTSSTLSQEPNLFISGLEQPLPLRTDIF

Row | Structure (SMILES) | EC50 (STING) [µM] | Delta TM (dog STING (dSTING)) [°C]
1 | Cc1cc(F)cc2c(-c3cccc4nn(C)c(F)c34)nn(-c3ccc(N4CCC(C(=O)O)CC4)nc3)c12 [Example 58, 1-(5-{3″,5-difluoro-2″,7-dimethyl-1H,2″H-[3,4″-biindazol]-1-yl}pyridin-2-yl)piperidine-4-carboxylic acid] | 0.207 | 33.0
2 | CC(=O)N1CCN(c2ccc(-n3nc(-c4cccc5nn(C)c(F)c45)c4cc(F)cc(C)c43)cn2)CC1 [Example 59, 1-[4-(5-{3″,5-difluoro-2″,7-dimethyl-1H,2″H-[3,4″-biindazol]-1-yl}pyridin-2-yl)piperazin-1-yl]ethan-1-one] | 0.207 | 22.0
3 | Cc1c(F)ccc2c(-c3cccc4nn(C)c(F)c34)nn(-c3ccc(N4CCC(C(=O)O)CC4)nc3)c12 [Example 60, 1-(5-{3″,6-difluoro-2″,7-dimethyl-1H,2″H-[3,4″-biindazol]-1-yl}pyridin-2-yl)piperidine-4-carboxylic acid] | 0.195 | 34.5
4 | CC(=O)N1CCN(c2ccc(-n3nc(-c4cccc5nn(C)c(F)c45)c4ccc(F)c(C)c43)cn2)CC1 [Example 61, 1-[4-(5-{3″,6-difluoro-2″,7-dimethyl-1H,2″H-[3,4″-biindazol]-1-yl}pyridin-2-yl)piperazin-1-yl]ethan-1-one] | 0.245 | 30.8
5 | Cc1cc(F)cc2c(-c3c(F)ccc4nn(C)cc34)nn(-c3ccc(N4CCC(C(=O)O)CC4)nc3)c12 [Example 62, 1-(5-{5,5″-difluoro-2″,7-dimethyl-1H,2″H-[3,4″-biindazol]-1-yl}pyridin-2-yl)piperidine-4-carboxylic acid] | 0.295 | 38.0
6 | CC(=O)N1CCN(c2ccc(-n3nc(-c4c(F)ccc5nn(C)cc45)c4cc(F)cc(C)c43)cn2)CC1 [Example 63, 1-[4-(5-{5,5″-difluoro-2″,7-dimethyl-1H,2″H-[3,4″-biindazol]-1-yl}pyridin-2-yl)piperazin-1-yl]ethan-1-one] | 0.0968 | 27.4
7 | Cc1c(F)ccc2c(-c3c(F)ccc4nn(C)cc34)nn(-c3ccc(N4C[C@@H]5[C@H](C4)[C@H]5C(=O)O)nc3)c12 [Example 64, (1R,5S,6R)-3-(5-{5″,6-difluoro-2″,7-dimethyl-1H,2″H-[3,4″-biindazol]-1-yl}pyridin-2-yl)-3-azabicyclo[3.1.0]hexane-6-carboxylic acid] | 0.666 | 36.5
8 | Cc1c(F)ccc2c(-c3c(F)ccc4nn(C)cc34)nn(-c3ccc(N4CCC(C(=O)O)CC4)nc3)c12 [Example 65, 1-(5-{5″,6-difluoro-2″,7-dimethyl-1H,2″H-[3,4″-biindazol]-1-yl}pyridin-2-yl)piperidine-4-carboxylic acid] | 0.33 | 36.5
9 | CC(=O)N1CCN(c2ccc(-n3nc(-c4cccc5nn(C)c(F)c45)c4ccc(F)c(C)c43)cn2)CC1 [Example 66, 1-[4-(5-{5″,6-difluoro-2″,7-dimethyl-1H,2″H-[3,4″-biindazol]-1-yl}pyridin-2-yl)piperazin-1-yl]ethan-1-one] | 0.179 | 25.8
10 | Cc1cc(F)cc2c(-c3c(F)cc(F)c4nn(C)cc34)nn(-c3ccc(N4CCC(C(=O)O)CC4)nc3)c12 [Example 67, 1-(5-{5,5″,7″-trifluoro-2″,7-dimethyl-1H,2″H-[3,4″-biindazol]-1-yl}pyridin-2-yl)piperidine-4-carboxylic acid] | 0.102 | 37.0
11 | CC(=O)N1CCN(c2ccc(-n3nc(-c4c(F)cc(F)c5nn(C)cc45)c4cc(F)cc(C)c43)cn2)CC1 [Example 68] | 0.106 | 28.5
12 | Cc1c(F)ccc2c(-c3c(F)cc(F)c4nn(C)cc34)nn(-c3ccc(N4CCC(C(=O)O)CC4)nc3)c12 [Example 70, 1-(5-{5″,6,7″-trifluoro-2″,7-dimethyl-1H,2″H-[3,4″-biindazol]-1-yl}pyridin-2-yl)piperidine-4-carboxylic acid] | 0.296 | 34.5
13 | Cc1cccc2c(-c3cccc4nn(C)c(F)c34)nn(-c3ccc(N4C[C@H]5C[C@@H]4C[C@@H]5C(=O)O)nc3)c12 [Example 73-1, (1R,4S,5S)-2-(5-{3″-fluoro-2″,7-dimethyl-1H,2″H-[3,4″-biindazol]-1-yl}pyridin-2-yl)-2-azabicyclo[2.2.1]heptane-5-carboxylic acid] | 0.0875 | 34.5
14 | Cc1cccc2c(-c3cccc4nn(C)c(F)c34)nn(-c3ccc(N4C[C@@H]5C[C@H]4C[C@H]5C(=O)O)nc3)c12 [Example 73-2, (1S,4R,5R)-2-(5-{3″-fluoro-2″,7-dimethyl-1H,2″H-[3,4″-biindazol]-1-yl}pyridin-2-yl)-2-azabicyclo[2.2.1]heptane-5-carboxylic acid] | 0.232 | 33.3
15 | Cc1cccc2c(-c3c(F)ccc4nn(C)c(F)c34)nn(-c3ccc(N4C[C@@H]5[C@H](C4)[C@H]5C(=O)O)nc3)c12 [Example 74, (1R,5S,6R)-3-(5-{3″,5″-difluoro-2″,7-dimethyl-1H,2″H-[3,4″-biindazol]-1-yl}pyridin-2-yl)-3-azabicyclo[3.1.0]hexane-6-carboxylic acid] | 0.16 | 36.4
16 | Cc1cccc2c(-c3c(F)cc(F)c4nn(C)c(F)c34)nn(-c3ccc(N4C[C@@H]5[C@H](C4)[C@H]5C(=O)O)nc3)c12 [Example 76, (1R,5S,6R)-3-(5-{3″,5″,7″-trifluoro-2″,7-dimethyl-1H,2″H-[3,4″- biindazol]-1-yl}pyridin-2-yl)-3-azabicyclo[3.1.0]hexane-6-carboxylic acid] | 0.695 | 33.0
17 | Cc1cccc2c(-c3c(Cl)ccc4nn(C)cc34)nn(-c3ccc(N4C[C@@H]5[C@H](C4)[C@H]5C(=O)O)nc3)c12 [Example 77, (1R,5S,6S)-3-(5-{5″-chloro-2″,7-dimethyl-1H,2″H-[3,4″-biindazol]-1-yl}pyridin-2-yl)-3-azabicyclo[3.1.0]hexane-6-carboxylic acid] | 1.09 | 27.4
18 | CC(=O)N1CCN(c2ccc(-n3nc(-c4c(Cl)ccc5nn(C)cc45)c4cccc(C)c43)cn2)CC1 [Example 78] | 0.817 | 18.4
